The values below come from ChEMBL document CHEMBL1129884, “Hindered rotation congeners of mazapertine: High affinity ligands for the 5-HT1A receptor” (Bioorg Med Chem Lett, 1997).

In general, inhibition in vivo refers to the change of the read-out against control, counted positive when it falls. A word on the Ki: it is a dissociation constant, usually derived from enzyme kinetics or from competition with a known ligand. Read a low Ki as tighter binding. As a reminder, the inhibition is the change of the read-out against control, counted positive when it falls.

Assay [1] relates to Rattus norvegicus. The experiment in a line: Compound was measured for its antipsychotic activity in the rat conditioned avoidance test, at a dose of 15 mg/kg compound administered perorally. Conditions: route oral. In kind it is functional.
Assay [2] deals with T1, 5-hydroxytryptamine receptor 1A (Homo sapiens, UniProt P08908).
T1 sequence (P08908 whole entry): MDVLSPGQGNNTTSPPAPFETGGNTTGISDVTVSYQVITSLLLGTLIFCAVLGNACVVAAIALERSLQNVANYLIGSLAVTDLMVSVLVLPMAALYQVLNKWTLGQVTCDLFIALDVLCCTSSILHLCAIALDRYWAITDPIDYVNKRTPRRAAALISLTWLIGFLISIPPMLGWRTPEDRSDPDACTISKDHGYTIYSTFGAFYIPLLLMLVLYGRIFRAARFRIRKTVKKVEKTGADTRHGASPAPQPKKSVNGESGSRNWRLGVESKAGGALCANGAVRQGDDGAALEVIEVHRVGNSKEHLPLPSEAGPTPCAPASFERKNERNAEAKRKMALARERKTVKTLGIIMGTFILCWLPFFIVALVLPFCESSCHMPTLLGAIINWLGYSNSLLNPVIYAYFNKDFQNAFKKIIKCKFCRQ
The experiment in a line: Compound was measured […] for its binding affinity at 5-hydroxytryptamine 1A receptor using [3H]8-OH-DPAT as radioligand.

The target of assay [3] is T2, Adrenergic receptor alpha-1 (Homo sapiens, UniProt P35348+P25100+P35368).
T2 sequence (P35348 whole entry): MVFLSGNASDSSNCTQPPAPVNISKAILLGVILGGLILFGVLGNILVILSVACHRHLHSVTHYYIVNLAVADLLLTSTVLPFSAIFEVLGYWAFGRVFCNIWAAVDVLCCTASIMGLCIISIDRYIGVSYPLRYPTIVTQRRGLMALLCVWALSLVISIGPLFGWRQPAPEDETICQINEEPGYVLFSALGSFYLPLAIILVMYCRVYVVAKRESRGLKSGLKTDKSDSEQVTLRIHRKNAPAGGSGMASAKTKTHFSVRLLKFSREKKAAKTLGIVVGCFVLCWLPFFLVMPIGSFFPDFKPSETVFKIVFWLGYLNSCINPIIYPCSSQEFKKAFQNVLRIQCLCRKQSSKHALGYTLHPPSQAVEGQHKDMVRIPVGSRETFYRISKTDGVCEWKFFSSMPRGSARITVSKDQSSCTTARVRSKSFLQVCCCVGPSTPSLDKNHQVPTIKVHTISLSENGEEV
T2 sequence (P25100 whole entry): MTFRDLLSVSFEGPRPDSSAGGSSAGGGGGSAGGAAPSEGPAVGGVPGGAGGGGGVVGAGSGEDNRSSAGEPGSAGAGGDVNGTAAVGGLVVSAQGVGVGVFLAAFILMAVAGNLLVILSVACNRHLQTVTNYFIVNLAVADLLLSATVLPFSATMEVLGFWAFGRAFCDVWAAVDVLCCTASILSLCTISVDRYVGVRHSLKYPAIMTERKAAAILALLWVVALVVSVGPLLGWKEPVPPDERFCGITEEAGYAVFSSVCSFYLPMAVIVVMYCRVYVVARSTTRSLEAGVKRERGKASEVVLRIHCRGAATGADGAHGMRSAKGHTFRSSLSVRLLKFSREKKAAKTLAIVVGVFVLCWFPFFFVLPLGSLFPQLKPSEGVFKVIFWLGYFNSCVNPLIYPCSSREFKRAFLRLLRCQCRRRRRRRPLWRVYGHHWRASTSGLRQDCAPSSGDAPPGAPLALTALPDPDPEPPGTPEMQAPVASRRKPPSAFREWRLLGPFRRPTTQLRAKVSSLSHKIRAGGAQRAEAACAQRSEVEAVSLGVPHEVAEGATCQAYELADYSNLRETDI
T2 sequence (P35368 whole entry): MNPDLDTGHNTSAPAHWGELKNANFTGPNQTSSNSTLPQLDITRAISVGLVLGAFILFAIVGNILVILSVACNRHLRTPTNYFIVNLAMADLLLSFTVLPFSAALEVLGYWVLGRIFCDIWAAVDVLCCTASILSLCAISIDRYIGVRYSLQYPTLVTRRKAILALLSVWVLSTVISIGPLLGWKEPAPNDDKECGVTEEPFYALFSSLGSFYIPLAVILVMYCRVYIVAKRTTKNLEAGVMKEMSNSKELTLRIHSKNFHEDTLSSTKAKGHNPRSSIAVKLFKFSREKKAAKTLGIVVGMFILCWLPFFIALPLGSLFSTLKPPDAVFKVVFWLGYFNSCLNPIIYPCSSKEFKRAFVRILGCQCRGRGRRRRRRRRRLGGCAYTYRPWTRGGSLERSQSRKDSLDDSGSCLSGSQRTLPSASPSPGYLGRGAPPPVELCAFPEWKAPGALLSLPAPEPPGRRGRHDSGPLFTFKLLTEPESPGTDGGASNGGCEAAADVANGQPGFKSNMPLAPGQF
The experiment in a line: Compound was measured […] for its binding affinity at Alpha-1 adrenergic receptor using [3H]prazosin as radioligand.

For assay [4], the target named is T1, 5-hydroxytryptamine receptor 1A. The experiment in a line: Binding affinity against 5-hydroxytryptamine 1A receptor.
Assay [5] addresses 5-hydroxytryptamine receptor 1B (Homo sapiens) (UniProt P28222). The experiment in a line: Compound was measured for its binding affinity at 5-hydroxytryptamine 1B receptor at a concentration of 100 nM using [125I]CYP as radioligand.
For assay [6], the target named is Serotonin 3 (5-HT3) receptor (Homo sapiens) (UniProt P46098+A5X5Y0+O95264+Q70Z44+Q8WXA8). The experiment in a line: Compound was measured for its binding affinity at 5-hydroxytryptamine 3 receptor at a concentration of 10 uM using [3H]BRL-43694 as radioligand. In kind it is protein-complex assay.
The target in assay [7] is D(1A) dopamine receptor (Homo sapiens) (UniProt P21728). The assay can be described thus: Compound was measured for its binding affinity at Dopamine receptor D1 at a concentration of 10 uM using [3H]SCH-23390 as radioligand.
In assay [8] the target is T3, 5-hydroxytryptamine receptor 2C (Homo sapiens) (UniProt P28335).
T3 sequence (whole entry): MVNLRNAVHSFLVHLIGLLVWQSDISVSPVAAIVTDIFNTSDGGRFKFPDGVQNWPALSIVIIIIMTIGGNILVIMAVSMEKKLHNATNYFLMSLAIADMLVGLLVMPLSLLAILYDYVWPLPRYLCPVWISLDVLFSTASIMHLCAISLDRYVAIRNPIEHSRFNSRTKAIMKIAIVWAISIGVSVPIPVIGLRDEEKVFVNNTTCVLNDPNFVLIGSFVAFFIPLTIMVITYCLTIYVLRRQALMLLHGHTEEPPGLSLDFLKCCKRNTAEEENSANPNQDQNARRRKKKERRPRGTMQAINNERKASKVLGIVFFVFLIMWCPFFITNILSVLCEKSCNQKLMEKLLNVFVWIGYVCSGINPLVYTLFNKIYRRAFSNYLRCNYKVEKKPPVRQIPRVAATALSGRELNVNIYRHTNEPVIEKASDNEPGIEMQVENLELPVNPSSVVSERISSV
The assay can be described thus: Compound was measured for its binding affinity at 5-hydroxytryptamine 1C receptor at a concentration of 100 nM using [3H]mesulergine as radioligand.

Assay [9] has as its target 5-hydroxytryptamine receptor 1D (Homo sapiens) (UniProt P28221). The experiment in a line: Compound was measured for its binding affinity at 5-hydroxytryptamine 1D receptor at a concentration of 10 uM using [3H]5-HT as radioligand.
The next assay concerns the target D(2) dopamine receptor (Homo sapiens, UniProt P14416).
The test system of assay [10] is Rattus norvegicus. The experiment in a line: Compound was measured for its antipsychotic activity in the rat conditioned avoidance test, at a dose of 15 mg/kg administered perorally. In kind it is functional. Conditions: route oral.
In assay [11] the target is Serotonin 2 (5-HT2) receptor (Homo sapiens) (UniProt P41595+P28223+P28335). The assay can be described thus: Compound was measured for its binding affinity at 5-hydroxytryptamine 2 receptor at a concentration of 10 uM using [3H]ketanserin as radioligand. In kind it is protein assay.
Assay [12] deals with T4, D(3) dopamine receptor (Homo sapiens, UniProt P35462). The experiment in a line: Compound was measured […] for its inhibition of Dopamine receptor D3 at a concentration of 100 nM.
Assay [13] addresses T4, D(3) dopamine receptor.
Assay [14] deals with 5-hydroxytryptamine receptor 5B (Rattus norvegicus, UniProt P35365). The experiment in a line: Binding affinity against serotonin receptor.
The test system of assay [15] is Rattus norvegicus. The assay can be described thus: Compound was measured for its antipsychotic activity in the rat conditioned avoidance test at a dose of 15 mg/kg administered perorally. In kind it is functional. The settings on record: route oral.

T4 sequence (P35462 whole entry): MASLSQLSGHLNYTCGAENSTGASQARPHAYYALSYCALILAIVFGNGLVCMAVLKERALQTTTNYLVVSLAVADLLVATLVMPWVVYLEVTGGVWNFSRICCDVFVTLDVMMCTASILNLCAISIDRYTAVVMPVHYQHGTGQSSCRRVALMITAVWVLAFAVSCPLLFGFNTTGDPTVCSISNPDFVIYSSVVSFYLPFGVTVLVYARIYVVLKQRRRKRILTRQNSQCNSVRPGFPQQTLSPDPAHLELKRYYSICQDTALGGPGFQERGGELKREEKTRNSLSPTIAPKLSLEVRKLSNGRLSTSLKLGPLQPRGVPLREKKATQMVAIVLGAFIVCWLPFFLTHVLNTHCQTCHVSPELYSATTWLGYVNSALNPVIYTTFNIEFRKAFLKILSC
Sequence of Serotonin 2 (5-HT2) receptor (Homo sapiens) (P28223 whole entry, looked up, one chain of several): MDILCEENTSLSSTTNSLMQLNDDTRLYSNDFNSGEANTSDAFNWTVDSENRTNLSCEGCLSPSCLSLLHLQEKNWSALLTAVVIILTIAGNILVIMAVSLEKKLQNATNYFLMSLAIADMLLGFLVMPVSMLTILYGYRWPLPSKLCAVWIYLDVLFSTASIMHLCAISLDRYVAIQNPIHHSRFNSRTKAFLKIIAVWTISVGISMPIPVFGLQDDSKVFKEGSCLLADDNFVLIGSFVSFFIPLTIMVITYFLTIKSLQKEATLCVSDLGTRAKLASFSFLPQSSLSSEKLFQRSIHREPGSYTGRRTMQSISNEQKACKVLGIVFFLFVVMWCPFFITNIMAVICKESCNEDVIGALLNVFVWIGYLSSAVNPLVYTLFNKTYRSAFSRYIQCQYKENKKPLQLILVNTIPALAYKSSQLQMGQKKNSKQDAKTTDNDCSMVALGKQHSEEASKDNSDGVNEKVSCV
Sequence of Serotonin 2 (5-HT2) receptor (Homo sapiens) (P41595 whole entry, looked up, one chain of several): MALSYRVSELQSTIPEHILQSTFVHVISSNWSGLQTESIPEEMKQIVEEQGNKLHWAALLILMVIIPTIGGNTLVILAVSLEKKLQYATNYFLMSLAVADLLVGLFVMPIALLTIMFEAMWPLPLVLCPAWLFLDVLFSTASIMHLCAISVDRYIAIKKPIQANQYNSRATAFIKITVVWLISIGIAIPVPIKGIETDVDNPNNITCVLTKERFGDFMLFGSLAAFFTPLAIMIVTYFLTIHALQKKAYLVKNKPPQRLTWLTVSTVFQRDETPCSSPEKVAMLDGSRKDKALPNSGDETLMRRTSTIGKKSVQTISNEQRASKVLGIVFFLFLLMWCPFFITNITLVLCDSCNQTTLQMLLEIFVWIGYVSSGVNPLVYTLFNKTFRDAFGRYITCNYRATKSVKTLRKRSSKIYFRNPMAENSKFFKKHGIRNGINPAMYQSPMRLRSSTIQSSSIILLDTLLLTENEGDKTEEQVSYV
Sequence of 5-hydroxytryptamine receptor 1B (Homo sapiens) (P28222 whole entry): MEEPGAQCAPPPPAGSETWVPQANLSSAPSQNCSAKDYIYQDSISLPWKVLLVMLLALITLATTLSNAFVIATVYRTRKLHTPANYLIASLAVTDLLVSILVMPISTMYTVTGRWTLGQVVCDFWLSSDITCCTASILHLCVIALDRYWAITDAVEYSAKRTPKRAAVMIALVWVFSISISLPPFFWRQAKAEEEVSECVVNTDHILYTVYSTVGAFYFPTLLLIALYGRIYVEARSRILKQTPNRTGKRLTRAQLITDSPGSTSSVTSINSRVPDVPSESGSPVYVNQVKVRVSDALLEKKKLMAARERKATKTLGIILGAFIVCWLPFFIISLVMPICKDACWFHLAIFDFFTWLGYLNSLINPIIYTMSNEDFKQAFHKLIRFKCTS
Sequence of D(1A) dopamine receptor (Homo sapiens) (P21728 whole entry): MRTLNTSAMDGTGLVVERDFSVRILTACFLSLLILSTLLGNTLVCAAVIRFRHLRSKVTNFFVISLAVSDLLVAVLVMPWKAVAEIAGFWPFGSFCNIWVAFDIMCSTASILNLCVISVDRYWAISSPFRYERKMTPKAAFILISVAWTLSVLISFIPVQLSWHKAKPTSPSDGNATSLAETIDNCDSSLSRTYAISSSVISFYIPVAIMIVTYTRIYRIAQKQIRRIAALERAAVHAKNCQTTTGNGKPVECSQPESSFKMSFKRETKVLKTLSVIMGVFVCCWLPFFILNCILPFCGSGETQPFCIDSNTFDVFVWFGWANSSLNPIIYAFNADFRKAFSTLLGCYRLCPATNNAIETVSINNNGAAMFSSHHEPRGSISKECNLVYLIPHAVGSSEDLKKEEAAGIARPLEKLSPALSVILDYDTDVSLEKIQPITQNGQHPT
Sequence of D(2) dopamine receptor (P14416 whole entry): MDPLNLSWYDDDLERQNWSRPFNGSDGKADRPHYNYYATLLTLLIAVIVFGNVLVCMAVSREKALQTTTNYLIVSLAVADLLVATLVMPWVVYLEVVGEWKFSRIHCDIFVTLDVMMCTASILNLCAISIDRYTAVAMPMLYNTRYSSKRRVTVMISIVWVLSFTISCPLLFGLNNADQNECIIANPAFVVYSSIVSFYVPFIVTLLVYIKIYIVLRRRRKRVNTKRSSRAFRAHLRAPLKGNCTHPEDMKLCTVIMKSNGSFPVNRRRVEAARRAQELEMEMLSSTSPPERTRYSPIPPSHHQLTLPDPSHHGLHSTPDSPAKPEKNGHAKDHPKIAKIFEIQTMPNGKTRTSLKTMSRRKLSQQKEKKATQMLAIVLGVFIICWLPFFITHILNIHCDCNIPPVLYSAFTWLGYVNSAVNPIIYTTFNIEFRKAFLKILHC
Sequence of 5-hydroxytryptamine receptor 1D (Homo sapiens) (P28221 whole entry): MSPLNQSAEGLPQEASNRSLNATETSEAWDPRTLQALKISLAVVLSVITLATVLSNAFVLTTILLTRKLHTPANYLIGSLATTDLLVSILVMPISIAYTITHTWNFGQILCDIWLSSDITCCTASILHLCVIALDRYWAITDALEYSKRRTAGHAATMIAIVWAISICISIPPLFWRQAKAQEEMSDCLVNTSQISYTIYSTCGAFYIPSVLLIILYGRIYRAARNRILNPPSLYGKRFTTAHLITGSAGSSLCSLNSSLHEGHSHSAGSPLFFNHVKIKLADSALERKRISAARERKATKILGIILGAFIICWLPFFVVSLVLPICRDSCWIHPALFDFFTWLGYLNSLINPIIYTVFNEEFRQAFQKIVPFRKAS
Sequence of 5-hydroxytryptamine receptor 5B (P35365 whole entry): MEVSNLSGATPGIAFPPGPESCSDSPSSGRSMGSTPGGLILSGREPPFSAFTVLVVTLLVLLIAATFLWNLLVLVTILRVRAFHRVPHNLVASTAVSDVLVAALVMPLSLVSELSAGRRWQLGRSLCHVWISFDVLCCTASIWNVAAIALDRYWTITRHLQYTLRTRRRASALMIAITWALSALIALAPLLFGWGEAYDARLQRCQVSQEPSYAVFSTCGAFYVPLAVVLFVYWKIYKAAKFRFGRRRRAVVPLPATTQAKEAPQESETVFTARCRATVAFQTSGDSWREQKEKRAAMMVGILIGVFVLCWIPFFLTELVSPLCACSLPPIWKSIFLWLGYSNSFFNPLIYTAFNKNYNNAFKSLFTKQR
Description for D(2) dopamine receptor: Compound was measured in vivo for its binding affinity at Dopamine receptor D2 using [3H]spiperone as radioligand.

`CC(C)Oc1ccccc1N1CCN(Cc2cccc(C(=O)N3CCc4ccccc43)c2)CC1`: the inhibition in vivo at 15 mg/kg in the assay with Rattus norvegicus [1] is -96%. For the same compound, the Ki stood at 3.4 nM in assay [2] and 1.7 nM in assay [3].

With `O=C1c2ccccc2C(=O)N1CCCCN1CCn2c(cc3ccccc32)C1`, in assay [4], the Ki was found to be 74 nM.

As to `O=C(c1cccc(CN2CCc3c([nH]c4ccccc34)C2)c1)N1CCc2ccccc21`, the inhibition in [5] amounted to 8.8%; in assay [6], 22.6%; in [7], 40.8%; in assay [8] it was 8.7%; in [9] it was 86.1%; in [11] it was 29.9%. The inhibition against D(3) dopamine receptor [12] is 56%. For the same compound, the Ki in assay [2] was 9.2 nM; in assay [3] it was 2.9 nM; on D(2) dopamine receptor, greater than 1000 nM. For the same compound, the inhibition in vivo at 15 mg/kg in the assay on Rattus norvegicus [10] was -37%.

`CC(C)Oc1ccccc1N1CCN(Cc2cccc(C(=O)N3CCCCC3)c2)CC1` [MAZAPERTINE]: affinity on D(3) dopamine receptor [13] was put at a Ki of 1.8 nM.

Consider `FC(F)(F)c1ccc2c(c1)N1CCNCC1CC2` (stereo not drawn), for which the Ki in assay [14] came to 67 nM.

Consider `O=C(c1cccc(CN2CCN3c4ccccc4OCC3C2)c1)N1CCCCC1` (stereo not drawn), for which the inhibition in assay [5] was 3.4%; in assay [6], 5.1%; in [7], 14.7%; in assay [8], 5.6%; in [9], 63.8%; in [11], 7.5%. The inhibition on D(3) dopamine receptor [12] is 64%. The figures for the Ki (in assay [2]; in assay [3]; at D(2) dopamine receptor) were 12 nM, 200 nM and greater than 1000 nM, respectively. Besides, the inhibition in vivo at 15 mg/kg in the assay with Rattus norvegicus [15] is -49%.

In assay [4], `CCCN1CCC[C@@H]2c3cc(O)ccc3CC[C@H]21` yielded a Ki of 3.87 nM.

In the case of `COc1cccc2c1C1CCN(CCCN3C(=O)c4ccccc4S3(=O)=O)C[C@H]1C2` (stereo partly drawn), the affinity in [4], expressed as Ki, was 0.89 nM.

In turn, `CCCCCCN1CCc2c([nH]c3ccccc23)C1` displayed a Ki in [4] of 79 nM.

In the case of `O=C(c1cccc(CN2CCN3c4ccccc4OCC3C2)c1)N1CCc2ccccc21` (stereo not drawn), the inhibition in assay [5] is 8.1%; in assay [6], 12.5%; in assay [7], 42.4%; in assay [8] it was -2.8%; in assay [9], 58.9%; in assay [11] it was 7.5%. For the same compound, the inhibition against D(3) dopamine receptor [12] was determined as 54%. For the same compound, the Ki in assay [2] is 6.5 nM; in assay [3], greater than 1000 nM; at D(2) dopamine receptor, greater than 1000 nM. The inhibition in vivo at 15 mg/kg in the assay on Rattus norvegicus [10] is -20%.

Turning to `O=C(c1cccc(CN2CCc3c([nH]c4ccccc34)C2)c1)N1CCCCC1`, the inhibition in assay [5] turned out to be 1%; in [6], 13.6%; in assay [7], 23.7%; in assay [8], 5.5%; in assay [9], 74.7%; in assay [11], 18%. The inhibition against D(3) dopamine receptor [12] was found to be 27%. In addition, the inhibition constant (Ki) in assay [2] was 13 nM; in [3], 36 nM; on D(2) dopamine receptor it was 374 nM. Also, the inhibition in vivo at 15 mg/kg in the assay on Rattus norvegicus [10] was -74%.
